Laboratory results: the NIST ThermoML archive (doi:10.1021/je800110r)

Details: 313.14 K, Liquid, Vibrating tube method

CCCCCCCCCC [decane]
Details	mass density [kg/m3]
24173 kPa	733.5
24196 kPa	733.5
24223 kPa	733.4
24245 kPa	733.5
24268 kPa	733.6
24304 kPa	733.6
24331 kPa	733.6
24351 kPa	733.6
24391 kPa	733.7
24420 kPa	733.7
24455 kPa	733.7
24491 kPa	733.7
24527 kPa	733.7
24559 kPa	733.8
24591 kPa	733.7
24632 kPa	733.9
24668 kPa	733.9
24704 kPa	733.9
24729 kPa	733.9
24758 kPa	734
24787 kPa	733.9
24824 kPa	733.9
24854 kPa	734
24889 kPa	734
24918 kPa	734.1
24952 kPa	734
24983 kPa	734
25018 kPa	734.1
25049 kPa	734.2
25080 kPa	734.1
25107 kPa	734.2
25129 kPa	734.2
25161 kPa	734.2
25188 kPa	734.2
25215 kPa	734.2
25255 kPa	734.3
25287 kPa	734.3
25323 kPa	734.3
25351 kPa	734.4
25387 kPa	734.3
25415 kPa	734.3
25452 kPa	734.5
25489 kPa	734.4
25558 kPa	734.6
25618 kPa	734.5
25650 kPa	734.6
25684 kPa	734.6
25712 kPa	734.5
25750 kPa	734.5
25778 kPa	734.6
25811 kPa	734.6
25840 kPa	734.7
25878 kPa	734.8
27095 kPa	735.5
27127 kPa	735.5
27155 kPa	735.6
27178 kPa	735.5
27206 kPa	735.6
27239 kPa	735.7
27267 kPa	735.7
27295 kPa	735.5
27328 kPa	735.7
27370 kPa	735.7
27403 kPa	735.7
27432 kPa	735.8
27465 kPa	735.8
27498 kPa	735.7
27527 kPa	735.8
27560 kPa	735.9
27599 kPa	735.8
27627 kPa	735.8
27661 kPa	735.9
27685 kPa	735.8
27728 kPa	735.9
27767 kPa	736
27811 kPa	736
27850 kPa	735.9
27898 kPa	736.1
27932 kPa	736.2
29093 kPa	736.8
29131 kPa	736.9
29195 kPa	737
29243 kPa	737
29286 kPa	736.9
29330 kPa	737.1
29369 kPa	737.1
29414 kPa	737
29452 kPa	737.1
29496 kPa	737.2
29524 kPa	737.1
29568 kPa	737.2
29611 kPa	737.2
29645 kPa	737.3
29684 kPa	737.2
29729 kPa	737.2
29763 kPa	737.3
29809 kPa	737.3
29845 kPa	737.3
29878 kPa	737.3
29923 kPa	737.4
29963 kPa	737.5
30003 kPa	737.5
30049 kPa	737.5
30089 kPa	737.6
30124 kPa	737.6
30171 kPa	737.5
30212 kPa	737.5
30248 kPa	737.6
30281 kPa	737.7
30319 kPa	737.6
30352 kPa	737.7
30401 kPa	737.8
30433 kPa	737.7
30466 kPa	737.8
30504 kPa	737.8
30542 kPa	737.8
30575 kPa	737.8
30614 kPa	737.9
31015 kPa	738.1
31049 kPa	738
31124 kPa	738.2
31165 kPa	738.2
31205 kPa	738.3
31251 kPa	738.3
31303 kPa	738.3
31332 kPa	738.3
31379 kPa	738.3
32818 kPa	739.4
32847 kPa	739.2
32891 kPa	739.4
32920 kPa	739.3
32965 kPa	739.4
33007 kPa	739.5
33037 kPa	739.5
33079 kPa	739.5
33103 kPa	739.6
33135 kPa	739.5
